Assay results reported in PubChem BioAssay AID1963962 (Molecular Pharmacology Branch, DTP, NCI, 2024).

System: 967376-340-R-J2-PDC multicell spheroid viability
Assay: Anticancer human tumor 967376-340-R-J2-PDC patient-derived colon adenocarcinoma cell line growth inhibition [PI3K]
Conditions: for IC50: curve of first compound; for viability, T/C: stronger effect = lower value
Outline: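 We assembled tumor spheroids that included a stromal compartment of HUVEC and MSCs, then exposed them to targeted agents alone and together with PI3K pathway inhibitors. Concentration series descended by half-log from clinically achievable Cmax levels. Viability served as the endpoint.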

[1] = second compound 0.0316 µM, first compound 0.0316 µM
[2] = second compound 0.0316 µM, first compound 0.1 µM
[3] = second compound 0.0316 µM, first compound 0.316 µM
[4] = second compound 0.0316 µM, first compound 1 µM
[5] = second compound 0.0316 µM, first compound 3.16 µM
[6] = second compound 0.0316 µM, first compound 10 µM
[7] = second compound 0.1 µM, first compound 0.0316 µM
[8] = second compound 0.1 µM, first compound 0.1 µM
[9] = second compound 0.1 µM, first compound 0.316 µM
[10] = second compound 0.1 µM, first compound 1 µM
[11] = second compound 0.1 µM, first compound 3.16 µM
[12] = second compound 0.1 µM, first compound 10 µM
[13] = second compound 0.316 µM, first compound 0.0316 µM
[14] = second compound 0.316 µM, first compound 0.1 µM
[15] = second compound 0.316 µM, first compound 0.316 µM
[16] = second compound 0.316 µM, first compound 1 µM
[17] = second compound 0.316 µM, first compound 3.16 µM
[18] = second compound 0.316 µM, first compound 10 µM
[19] = second compound 1 µM, first compound 0.0316 µM
[20] = second compound 1 µM, first compound 0.1 µM
[21] = second compound 1 µM, first compound 0.316 µM
[22] = second compound 1 µM, first compound 1 µM
[23] = second compound 1 µM, first compound 3.16 µM
[24] = second compound 1 µM, first compound 10 µM
[25] = second compound 3.16 µM, first compound 0.0316 µM
[26] = second compound 3.16 µM, first compound 0.1 µM
[27] = second compound 3.16 µM, first compound 0.316 µM
[28] = second compound 3.16 µM, first compound 1 µM
[29] = second compound 3.16 µM, first compound 3.16 µM
[30] = second compound 3.16 µM, first compound 10 µM
[31] = second compound 10 µM, first compound 0.0316 µM
[32] = second compound 10 µM, first compound 0.1 µM
[33] = second compound 10 µM, first compound 0.316 µM
[34] = second compound 10 µM, first compound 1 µM
[35] = second compound 10 µM, first compound 3.16 µM
[36] = second compound 10 µM, first compound 10 µM
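Also: spheroids exposed to agents for 7 days before read-out.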
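For viability, T/C in this document: luminescence used as surrogate of cell viability.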

## C#Cc1c(F)ccc2cc(O)cc(-c3ncc4c(N5CC6CCC(C5)N6)nc(OCC56CCCN5CC(F)C6)nc4c3F)c12 (stereo unspecified) + CC(Nc1ncnc2nc[nH]c12)c1cc2cccc(Cl)c2c(=O)n1-c1ccccc1
Second compound 0.0316 µM
  IC50: > 10 µM
Second compound 0.1 µM
  IC50: > 10 µM
Second compound 0.316 µM
  IC50: > 10 µM
Second compound 1 µM
  IC50: > 10 µM
Second compound 3.16 µM
  IC50: > 10 µM
Second compound 10 µM
  IC50: > 10 µM
[1]
  viability, T/C: 103%
[2]
  viability, T/C: 113%
[3]
  viability, T/C: 94.2%
[4]
  viability, T/C: 85.8%
[5]
  viability, T/C: 85.5%
[6]
  viability, T/C: 53.8%
[7]
  viability, T/C: 99.8%
[8]
  viability, T/C: 110%
[9]
  viability, T/C: 80.5%
[10]
  viability, T/C: 97.5%
[11]
  viability, T/C: 77%
[12]
  viability, T/C: 88.9%
[13]
  viability, T/C: 104%
[14]
  viability, T/C: 97.2%
[15]
  viability, T/C: 99.7%
[16]
  viability, T/C: 90.6%
[17]
  viability, T/C: 99.5%
[18]
  viability, T/C: 78.8%
[19]
  viability, T/C: 96.5%
[20]
  viability, T/C: 110%
[21]
  viability, T/C: 109%
[22]
  viability, T/C: 93%
[23]
  viability, T/C: 72.8%
[24]
  viability, T/C: 70.8%
[25]
  viability, T/C: 106%
[26]
  viability, T/C: 92.4%
[27]
  viability, T/C: 94.6%
[28]
  viability, T/C: 71.2%
[29]
  viability, T/C: 78.3%
[30]
  viability, T/C: 71.8%
[31]
  viability, T/C: 84.1%
[32]
  viability, T/C: 76.8%
[33]
  viability, T/C: 78.8%
[34]
  viability, T/C: 61.6%
[35]
  viability, T/C: 59.5%
[36]
  viability, T/C: 61.5%

## CC(Cn1ccc(-c2ccc(C#N)c(Cl)c2)n1)NC(=O)c1cc(C(C)O)[nH]n1 (stereo unspecified) + CC(Nc1ncnc2nc[nH]c12)c1cc2cccc(Cl)c2c(=O)n1-c1ccccc1
Second compound 0.0316 µM
  IC50: > 10 µM
Second compound 0.1 µM
  IC50: > 10 µM
Second compound 0.316 µM
  IC50: > 10 µM
Second compound 1 µM
  IC50: > 10 µM
Second compound 3.16 µM
  IC50: > 10 µM
Second compound 10 µM
  IC50: > 10 µM
[1]
  viability, T/C: 95.7%
[2]
  viability, T/C: 87.5%
[3]
  viability, T/C: 89.4%
[4]
  viability, T/C: 110%
[5]
  viability, T/C: 87.5%
[6]
  viability, T/C: 91.8%
[7]
  viability, T/C: 117%
[8]
  viability, T/C: 102%
[9]
  viability, T/C: 104%
[10]
  viability, T/C: 94.3%
[11]
  viability, T/C: 81.8%
[12]
  viability, T/C: 85.6%
[13]
  viability, T/C: 112%
[14]
  viability, T/C: 97.3%
[15]
  viability, T/C: 86.7%
[16]
  viability, T/C: 87.5%
[17]
  viability, T/C: 89%
[18]
  viability, T/C: 78.6%
[19]
  viability, T/C: 107%
[20]
  viability, T/C: 83.3%
[21]
  viability, T/C: 91.9%
[22]
  viability, T/C: 83.8%
[23]
  viability, T/C: 83.9%
[24]
  viability, T/C: 82.4%
[25]
  viability, T/C: 95.4%
[26]
  viability, T/C: 103%
[27]
  viability, T/C: 91.5%
[28]
  viability, T/C: 87.5%
[29]
  viability, T/C: 69.2%
[30]
  viability, T/C: 92.5%
[31]
  viability, T/C: 91.5%
[32]
  viability, T/C: 88.6%
[33]
  viability, T/C: 90%
[34]
  viability, T/C: 103%
[35]
  viability, T/C: 83.7%
[36]
  viability, T/C: 80.7%

## CC1(C)CCC(Nc2ncc(C(F)(F)F)c(-c3c[nH]c4c(P(C)(C)=O)c(C#N)ccc34)n2)CN1 (stereo unspecified) + CC(Nc1ncnc2nc[nH]c12)c1cc2cccc(Cl)c2c(=O)n1-c1ccccc1
Second compound 0.0316 µM
  IC50: > 10 µM
Second compound 0.1 µM
  IC50: > 10 µM
Second compound 0.316 µM
  IC50: > 10 µM
Second compound 1 µM
  IC50: > 10 µM
Second compound 3.16 µM
  IC50: > 10 µM
Second compound 10 µM
  IC50: 4.79 µM
[1]
  viability, T/C: 103%
[2]
  viability, T/C: 90.2%
[3]
  viability, T/C: 80.3%
[4]
  viability, T/C: 69.2%
[5]
  viability, T/C: 68.3%
[6]
  viability, T/C: 55.4%
[7]
  viability, T/C: 108%
[8]
  viability, T/C: 92.8%
[9]
  viability, T/C: 79.6%
[10]
  viability, T/C: 75.2%
[11]
  viability, T/C: 76.6%
[12]
  viability, T/C: 55.7%
[13]
  viability, T/C: 83.5%
[14]
  viability, T/C: 91.6%
[15]
  viability, T/C: 93%
[16]
  viability, T/C: 60.9%
[17]
  viability, T/C: 71.4%
[18]
  viability, T/C: 64.3%
[19]
  viability, T/C: 90.6%
[20]
  viability, T/C: 93.5%
[21]
  viability, T/C: 64.1%
[22]
  viability, T/C: 78.1%
[23]
  viability, T/C: 68.2%
[24]
  viability, T/C: 63.9%
[25]
  viability, T/C: 84.6%
[26]
  viability, T/C: 73.6%
[27]
  viability, T/C: 85%
[28]
  viability, T/C: 73.4%
[29]
  viability, T/C: 73%
[30]
  viability, T/C: 62.3%
[31]
  viability, T/C: 72.3%
[32]
  viability, T/C: 73.8%
[33]
  viability, T/C: 70.2%
[34]
  viability, T/C: 63.5%
[35]
  viability, T/C: 56.8%
[36]
  viability, T/C: 39.4%
